Assay [1] addresses hPARG (C-terminal His6-tag) (Homo sapiens (Human), UniProt Q86W56). Put plainly: PARG Enzymatic Activity Assay (HTRF). Format: biochemical. The following applies: hPARG 65 pM final, biotinylated-NAD ribosylated PARP1 8 nM final. In outline:
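Readout is time-resolved fluorescence at 620 and 665 nm after 60 min RT detection with streptavidin-Eu cryptate and anti-6HIS-XL665; IC50 by 4-parameter fit, 1% DMSO and no-enzyme controls. Reaction: 8 nM final ribosylated PARP1 substrate for 10 min RT, following 60 min RT enzyme (65 pM)–compound preincubation in Tris pH 7.4 buffer with EDTA, DTT, KCl.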
(In TR-FRET formats the signal depends on donor and acceptor labels being close together.)

The test system of the next assay is Kuramochi cell line. Put plainly: Cell Viability Assay (Cell Titer-Glo, 7 days). Format: cell-based. Particulars: 168 h, Kuramochi cells, 7 days incubation, read-out: PARG Cell viability (IC50). The gist of the method: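 IC50 from a four-parameter fit of CellTiter-Glo luminescence, scaled between DMSO-treated (high) and medium-only (low) wells. Kuramochi cells (400/well, RPMI/10% FBS) exposed 7 days at 37 °C to 9 concentrations, 3-fold steps, in duplicate.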
A general note: In ATP-based viability assays light output follows the ATP content of the culture.

hPARG (C-terminal His6-tag), sequence (Q86W56 whole entry): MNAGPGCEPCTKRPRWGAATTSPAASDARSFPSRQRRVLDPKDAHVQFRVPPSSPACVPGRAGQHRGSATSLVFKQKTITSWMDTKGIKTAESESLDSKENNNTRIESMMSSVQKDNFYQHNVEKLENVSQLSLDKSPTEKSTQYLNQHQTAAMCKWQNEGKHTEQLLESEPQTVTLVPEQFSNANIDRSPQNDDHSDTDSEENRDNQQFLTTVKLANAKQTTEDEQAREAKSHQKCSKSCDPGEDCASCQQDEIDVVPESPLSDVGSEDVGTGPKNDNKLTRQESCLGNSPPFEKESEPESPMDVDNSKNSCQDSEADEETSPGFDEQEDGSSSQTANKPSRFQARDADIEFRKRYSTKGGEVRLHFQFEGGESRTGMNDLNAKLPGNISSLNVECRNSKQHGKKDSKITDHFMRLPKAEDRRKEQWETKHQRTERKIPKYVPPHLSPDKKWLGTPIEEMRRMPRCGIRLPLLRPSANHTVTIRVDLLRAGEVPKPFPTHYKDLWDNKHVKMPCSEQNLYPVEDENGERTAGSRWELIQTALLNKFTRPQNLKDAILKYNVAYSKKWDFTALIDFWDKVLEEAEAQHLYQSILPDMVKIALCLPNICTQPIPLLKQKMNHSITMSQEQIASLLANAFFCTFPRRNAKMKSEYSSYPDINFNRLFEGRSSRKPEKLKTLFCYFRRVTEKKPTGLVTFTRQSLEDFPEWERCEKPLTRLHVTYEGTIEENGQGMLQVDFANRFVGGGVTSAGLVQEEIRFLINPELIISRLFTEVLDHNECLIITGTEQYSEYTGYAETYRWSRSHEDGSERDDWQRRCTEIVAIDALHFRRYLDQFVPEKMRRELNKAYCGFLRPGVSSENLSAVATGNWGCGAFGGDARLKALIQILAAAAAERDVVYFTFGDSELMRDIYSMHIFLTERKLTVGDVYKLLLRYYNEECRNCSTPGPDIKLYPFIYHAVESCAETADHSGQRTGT

Consider `N#CC1(NS(=O)(=O)c2ccc3c4c(C5CCN(C(=O)[C@H]6CCOC6)CC5)ncnc4n(-c4nnc(C(F)F)s4)c3c2)CC1` [Example 115, (S)-N-(1-cyanocyclopropyl)-9-(5-(difluoromethyl)-1,3,4-thiadiazol-2-yl)-4-(1-(tetrahydrofuran-3-carbonyl)piperidin-4-yl)-9H-pyrimido[4,5-b]indole-7-sulfonamide], for which the IC50 (in assay [1]; in the assay on Kuramochi cell line) was under 100 nM each time.
Take `N#CC1(NS(=O)(=O)c2ccc3c4c(C5CCN(C(=O)[C@@H]6CCOC6)CC5)ncnc4n(-c4nnc(C(F)F)s4)c3c2)CC1` [Example 116, (R)-N-(1-cyanocyclopropyl)-9-(5-(difluoromethyl)-1,3,4-thiadiazol-2-yl)-4-(1-(tetrahydrofuran-3-carbonyl)piperidin-4-yl)-9H-pyrimido[4,5-b]indole-7-sulfonamide]: the IC50 (in assay [1]; with Kuramochi cell line) was under 100 nM throughout.
As for `COCC(=O)N1CCC(c2ncnc3c2c2ccc(S(=O)(=O)NC4(C#N)CC4)cc2n3-c2nnc(C(F)F)s2)CC1` [Example 117, N-(1-cyanocyclopropyl)-9-(5-(difluoromethyl)-1,3,4-thiadiazol-2-yl)-4-(1-(2-methoxyacetyl)piperidin-4-yl)-9H-pyrimido[4,5-b]indole-7-sulfonamide], the IC50 (in assay [1]; with Kuramochi cell line) was under 100 nM throughout.
For `CC(C)(O)C(=O)N1CCC(c2ncnc3c2c2ccc(S(=O)(=O)NC4(C#N)CC4)cc2n3-c2nnc(C(F)F)s2)CC1` [Example 118, N-(1-cyanocyclopropyl)-9-(5-(difluoromethyl)-1,3,4-thiadiazol-2-yl)-4-(1-(2-hydroxy-2-methylpropanoyl)piperidin-4-yl)-9H-pyrimido[4,5-b]indole-7-sulfonamide], the IC50 (in assay [1]; in the assay on Kuramochi cell line) was under 100 nM in each case.
Turning to `COC(C)(C)C(=O)N1CCC(c2ncnc3c2c2ccc(S(=O)(=O)NC4(C#N)CC4)cc2n3-c2nnc(C(F)F)s2)CC1` [Example 119, N-(1-cyanocyclopropyl)-9-(5-(difluoromethyl)-1,3,4-thiadiazol-2-yl)-4-(1-(2-methoxy-2-methylpropanoyl)piperidin-4-yl)-9H-pyrimido[4,5-b]indole-7-sulfonamide], the IC50 (in assay [1]; in the assay with Kuramochi cell line) was under 100 nM each time.
As for `CCC(=O)N1CCC(c2ncnc3c2c2ccc(S(=O)(=O)NC4(C#N)CC4)cc2n3-c2nnc(C(F)F)s2)CC1` [Example 120, N-(1-cyanocyclopropyl)-9-(5-(difluoromethyl)-1,3,4-thiadiazol-2-yl)-4-(1-propionylpiperidin-4-yl)-9H-pyrimido[4,5-b]indole-7-sulfonamide], the IC50 (in assay [1]; in the assay on Kuramochi cell line) was under 100 nM in each case.
Take `CS(=O)(=O)N1CCC(c2ncnc3c2c2ccc(S(=O)(=O)NC4(C#N)CC4)cc2n3-c2nnc(C(F)F)s2)CC1` [Example 121, N-(1-Cyanocyclopropyl)-9-(5-(difluoromethyl)-1,3,4-thiadiazol-2-yl)-4-(1-(methylsulfonyl)piperidin-4-yl)-9H-pyrimido[4,5-b]indole-7-sulfonamide]: the IC50 (in assay [1]; in the assay with Kuramochi cell line) was under 100 nM each time.
Turning to `CCS(=O)(=O)N1CCC(c2ncnc3c2c2ccc(S(=O)(=O)NC4(C#N)CC4)cc2n3-c2nnc(C(F)F)s2)CC1` [Example 122, N-(1-Cyanocyclopropyl)-9-(5-(difluoromethyl)-1,3,4-thiadiazol-2-yl)-4-(1-(ethylsulfonyl)piperidin-4-yl)-9H-pyrimido[4,5-b]indole-7-sulfonamide], the IC50 (in assay [1]; in the assay with Kuramochi cell line) was under 100 nM throughout.
For the compound `CC(C)S(=O)(=O)N1CCC(c2ncnc3c2c2ccc(S(=O)(=O)NC4(C#N)CC4)cc2n3-c2nnc(C(F)F)s2)CC1` [Example 123, N-(1-Cyanocyclopropyl)-9-(5-(difluoromethyl)-1,3,4-thiadiazol-2-yl)-4-(1-(isopropylsulfonyl)piperidin-4-yl)-9H-pyrimido[4,5-b]indole-7-sulfonamide], the IC50 (in assay [1]; with Kuramochi cell line) was under 100 nM each time.
In the case of `N#CC1(NS(=O)(=O)c2ccc3c4c(C5CCN(C(=O)[C@@H]6CCCN6)CC5)ncnc4n(-c4nnc(C(F)F)s4)c3c2)CC1` [Example 124, (S)—N-(1-Cyanocyclopropyl)-9-(5-(difluoromethyl)-1,3,4-thiadiazol-2-yl)-4-(1-prolylpiperidin-4-yl)-9H-pyrimido[4,5-b]indole-7-sulfonamide], the results for the IC50 (in assay [1]; with Kuramochi cell line) were under 100 nM and 100 to 1000 nM, respectively.
The like results for `N#CC1(NS(=O)(=O)c2ccc3c4c(C5CCN(C(=O)[C@H]6CCCN6)CC5)ncnc4n(-c4nnc(C(F)F)s4)c3c2)CC1` [Example 125, (R)-N-(1-cyanocyclopropyl)-9-(5-(difluoromethyl)-1,3,4-thiadiazol-2-yl)-4-(1-prolylpiperidin-4-yl)-9H-pyrimido[4,5-b]indole-7-sulfonamide] were, in that order, under 100 nM and 100 to 1000 nM.
The like results for `CC(C)(N)C(=O)N1CCC(c2ncnc3c2c2ccc(S(=O)(=O)NC4(C#N)CC4)cc2n3-c2nnc(C(F)F)s2)CC1` [Example 126, 4-(1-(2-Amino-2-methylpropanoyl)piperidin-4-yl)-N-(1-cyanocyclopropyl)-9-(5-(difluoromethyl)-1,3,4-thiadiazol-2-yl)-9H-pyrimido[4,5-b]indole-7-sulfonamide] were, in that order, under 100 nM and 100 to 1000 nM.
On to `C[C@@H](N)C(=O)N1CCC(c2ncnc3c2c2ccc(S(=O)(=O)NC4(C#N)CC4)cc2n3-c2nnc(C(F)F)s2)CC1` [Example 127, 4-(1-(D-Alanyl)piperidin-4-yl)-N-(1-cyanocyclopropyl)-9-(5-(difluoromethyl)-1,3,4-thiadiazol-2-yl)-9H-pyrimido[4,5-b]indole-7-sulfonamide], for which the IC50 (in general, the concentration that inhibits the measured activity by half) in assay [1] is under 100 nM; in the assay with Kuramochi cell line, 100 to 1000 nM.
Turning to `C[C@H](N)C(=O)N1CCC(c2ncnc3c2c2ccc(S(=O)(=O)NC4(C#N)CC4)cc2n3-c2nnc(C(F)F)s2)CC1` [Example 128, 4-(1-(L-alanyl)piperidin-4-yl)-N-(1-cyanocyclopropyl)-9-(5-(difluoromethyl)-1,3,4-thiadiazol-2-yl)-9H-pyrimido[4,5-b]indole-7-sulfonamide], the IC50 in assay [1] is under 100 nM; in the assay on Kuramochi cell line, 100 to 1000 nM.
Consider `N#CC1(NS(=O)(=O)c2ccc3c4c(C5CCN(C(=O)N6CC[C@@H](O)C6)CC5)ncnc4n(-c4nnc(C(F)F)s4)c3c2)CC1` [Example 129, (R)—N-(1-Cyanocyclopropyl)-9-(5-(difluoromethyl)-1,3,4-thiadiazol-2-yl)-4-(1-(3-hydroxypyrrolidine-1-carbonyl)piperidin-4-yl)-9H-pyrimido[4,5-b]indole-7-sulfonamide], for which the IC50 in assay [1] was under 100 nM; in the assay with Kuramochi cell line, 100 to 1000 nM.
For the compound `N#CC1(NS(=O)(=O)c2ccc3c4c(C5CCN(C(=O)N6CC[C@H](O)C6)CC5)ncnc4n(-c4nnc(C(F)F)s4)c3c2)CC1` [Example 130, (S)—N-(1-Cyanocyclopropyl)-9-(5-(difluoromethyl)-1,3,4-thiadiazol-2-yl)-4-(1-(3-hydroxypyrrolidine-1-carbonyl)piperidin-4-yl)-9H-pyrimido[4,5-b]indole-7-sulfonamide], the concentration for half-maximal inhibition (IC50) in assay [1] was under 100 nM; in the assay on Kuramochi cell line it was 100 to 1000 nM.

Source of the values: patent publication US20250388589A1, “TRICYCLIC HETEROCYCLIC DERIVATIVES, COMPOSITIONS AND USES THEREOF” (Danatlas Pharmaceuticals Co., Ltd., priority 2022, published 2025).
